Results: ChEMBL document CHEMBL1201862, “PubChem BioAssay data set” (2004)
The source made the active and inactive calls.

Legend:
[1] = Luminescence Cell-Based Dose Retest to Confirm Inhibitors of Cancer Stem Cells. [Related pubchem assays (depositor defined):AID2717, AID2721]; type: functional; details: Homo sapiens
[2] = HEK-293T viability loss after treatment – luminescence, T-cell screen hits, cytotoxicity control for TCR NF-kB inhibitor project, dose response (AID 489026); type: functional, cell-based;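 further: cells exposed to compound about 14 hours before the viability readout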
[3] = target: T1, Polyadenylate-binding protein 1 (Homo sapiens, UniProt P11940); assay: MLLE domain peptide-binding blockers, IC50 – biochemical, fluorescence polarization, FITC-PAM2 peptide, dose response (AID 602259); type: functional; details: read-out: IC50_Mean
[4] = target: T1, Polyadenylate-binding protein 1; assay: MLLE binding blockers, Cy5 peptide tracer – biochemical, fluorescence polarization, Cy5-PAM2 peptide, secondary, miRNA deadenylation inhibitor project, dose response (AID 602260); type: functional; details: read-out: IC50_Mean
[5] = target: T2, RNA-binding protein pos-1 (Caenorhabditis elegans, UniProt G5EF15); assay: disruptors of C. elegans POS-1 RNA interaction – biochemical, fluorescence polarization, dose response (AID 1964);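 further: purified POS-1 fused to maltose binding protein made in E. coli; potency of compounds blocking POS-1 binding to fluorescent RNA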
T2 sequence (G5EF15 whole entry): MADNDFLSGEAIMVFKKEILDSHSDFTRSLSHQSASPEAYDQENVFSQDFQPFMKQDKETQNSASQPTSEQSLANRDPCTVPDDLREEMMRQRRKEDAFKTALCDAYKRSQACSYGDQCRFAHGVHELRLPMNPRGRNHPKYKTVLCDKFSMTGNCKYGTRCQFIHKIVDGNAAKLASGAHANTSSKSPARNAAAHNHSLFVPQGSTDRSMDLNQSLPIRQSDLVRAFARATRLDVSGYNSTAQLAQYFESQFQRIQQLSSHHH

[6] = target: T3, Zinc finger protein mex-5 (Caenorhabditis elegans, UniProt Q9XUB2); assay: potency of MEX-5 RNA-binding blockers – biochemical, C. elegans, fluorescence polarization, dose response (AID 1960)
T3 sequence (Q9XUB2 whole entry): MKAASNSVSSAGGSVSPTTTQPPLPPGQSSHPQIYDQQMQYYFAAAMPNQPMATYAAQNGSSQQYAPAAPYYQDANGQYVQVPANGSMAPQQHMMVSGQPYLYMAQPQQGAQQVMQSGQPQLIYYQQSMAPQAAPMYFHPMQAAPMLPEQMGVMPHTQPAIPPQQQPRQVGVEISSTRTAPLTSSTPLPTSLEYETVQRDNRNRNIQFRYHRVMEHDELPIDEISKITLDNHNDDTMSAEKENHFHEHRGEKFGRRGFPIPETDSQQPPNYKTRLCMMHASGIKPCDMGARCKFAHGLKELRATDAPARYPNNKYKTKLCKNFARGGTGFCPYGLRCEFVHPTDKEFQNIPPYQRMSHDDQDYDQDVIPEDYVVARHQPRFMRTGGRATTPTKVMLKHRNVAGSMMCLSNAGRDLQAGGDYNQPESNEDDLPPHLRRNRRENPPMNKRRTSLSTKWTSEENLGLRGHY

[7] = target: T4, Fatty acid synthase (Homo sapiens, UniProt P49327); assay: inhibition of human FAS-TE enzyme activity – biochemical, endpoint fluorescence intensity, uHTS hits, dose response (AID 624327); type: functional;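 further: fluorescence from hydrolysis of an O-methyl fluorescein acyl ester substrate by the enzyme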
[8] = target: T4, Fatty acid synthase; assay: inhibition of human FAS-TE enzyme activity – biochemical, kinetic fluorescence intensity, dose response (AID 624326); type: functional;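 further: rate of fluorescence rise from hydrolysis of a fluorogenic O-methyl fluorescein ester substrate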
[9] = cells; type: functional, cell-based
[10] = cells; type: functional, cell-based; remark: listed apart in the source
[11] = blockade of melanocortin 4 receptor signaling – cell-based, plate reader, cherry pick, counter-screen for LGR2 antagonist project, dose response (AID 743444); type: functional;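 further: transfected HEK 293 cells stimulated with alpha-MSH peptide; potency of inhibitors of the alpha-MSH evoked signal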
[12] = blockers of bursicon-stimulated LGR2 cAMP reporter – cell-based, HEK293, CRE-luciferase reporter, cherry pick, set 2, dose response (AID 743343); type: functional;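 further: transfected cells were stimulated with diluted bursicon conditioned medium after compound addition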
[13] = target: Glyceraldehyde-3-phosphate dehydrogenase (Homo sapiens, UniProt P04406)
[14] = test system: Streptococcus sp. 'group A'; assay: Streptococcus pyogenes SK(-)GAS viability under kanamycin – luminescence, BacTiterGlo, confirmation, counter-screen for streptokinase expression inhibitor project, dose response (AID 1900); type: functional, organism-based
[15] = test system: Streptococcus; assay: GAS UMAA2166 growth inhibition – luminescence, BacTiterGlo, counter-screen for streptokinase expression inhibitor project, dose response (AID 1915); type: functional, organism-based;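 further: potency for reduction of bacterial viability or growth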
[16] = target: T5, Streptokinase A (Streptococcus pyogenes serotype M1, UniProt P10520); assay: viability-normalized secreted streptokinase activity reduction – plasminogen activation absorbance, OD405, dose response (AID 1914); type: functional, Streptococcus pyogenes M1 GAS;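 further: secreted streptokinase activity via plasminogen activation per viability signal from cell pellet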
T5 sequence (P10520 whole entry): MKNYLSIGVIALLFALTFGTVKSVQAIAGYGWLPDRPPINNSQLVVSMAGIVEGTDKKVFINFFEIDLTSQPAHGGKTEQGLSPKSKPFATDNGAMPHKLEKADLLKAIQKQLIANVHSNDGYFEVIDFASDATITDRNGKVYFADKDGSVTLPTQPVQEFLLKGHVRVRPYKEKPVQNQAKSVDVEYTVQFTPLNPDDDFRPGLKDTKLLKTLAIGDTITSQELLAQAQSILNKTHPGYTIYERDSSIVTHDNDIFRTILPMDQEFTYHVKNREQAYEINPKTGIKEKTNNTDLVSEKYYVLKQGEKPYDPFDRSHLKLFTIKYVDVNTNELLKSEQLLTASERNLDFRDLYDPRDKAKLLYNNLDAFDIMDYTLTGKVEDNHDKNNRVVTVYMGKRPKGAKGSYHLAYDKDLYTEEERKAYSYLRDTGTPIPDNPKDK

[17] = Vero E6 cell cytotoxicity, dose response, cytotoxicity control for non-replicating M. tuberculosis project, secondary assay (AID 492998); type: functional, VeroE6; details: Vero C1008
[18] = fluconazole-exposed Candida albicans growth modulators – fluorescence, retest, confirmation (AID 2467); type: functional, cell-based
[19] = microbe, parasite or virus in culture; type: functional; details: Mycobacterium tuberculosis
[20] = THP-1 cell cytotoxicity, dose response, cytotoxicity control for non-replicating M. tuberculosis project (AID 489025); type: functional
[21] = cells; type: functional
[22] = NIH-3T3 fibroblast cytotoxicity, dose response, cytotoxicity control, cell-based, fluorescence, Alamar Blue, secondary assay (AID 2327); type: functional;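 further: NIH-3T3 mouse fibroblasts cultured with fluconazole at 8 µg/mL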
[23] = test system: H4; assay: Luminescence Cell-Based Dose Response HTS to Identify Activators of 5'UTR Stem-Loop Driven Prion Protein mRNA Translation in H4 Neuroglioblastoma Cells. [Related pubchem assays: 1829 (Project Summary), 1814 (Primary HTS)]; type: functional; details: Homo sapiens
[24] = Luminescence Cell-Based Dose Response HTS to Identify Activators of Luciferase Translation or Activity in H4 […] Cells. [Related pubchem assays: 1829 (Project Summary), 1814 (Primary HTS)]; type: functional
[25] = target: Glucose-6-phosphate 1-dehydrogenase (Homo sapiens, UniProt P11413); assay: inhibition of Homo sapiens G6PD, dose series – biochemical, fluorescence, selectivity assay for P. falciparum G6PD inhibitor project, dose response (AID 504792); type: functional
[26] = reduction of Shn3 3'UTR-driven luciferase in osteoblasts – cell-based, Clone20 osteoblasts, firefly luciferase, cherry-picked, dose response (AID 624132); type: functional;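 further: firefly luciferase luminescence from reporter carrying the Shn3 3'UTR in osteoblasts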
[27] = non-specific 3'UTR reporter inhibition in Clone20-Shn3RL – cell-based, Renilla luciferase, cherry-picked, counter-screen for Shn3 inhibitor project, dose response (AID 624133); type: functional
[28] = target: Nonstructural protein 1 (Influenza A virus, UniProt Q194T2); type: functional, Influenza A virus (A/California/07/2009(H1N1))
[29] = A549 cell cytotoxicity, dose response, cytotoxicity control, plate reader, cherry-pick, antagonist series (AID 743412); type: functional, cell-based
[30] = target: Large T antigen (Simian virus 40, UniProt P03070); type: functional, Betapolyomavirus macacae;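 further: Confirmatory-stage PubChem screen for compounds that inhibit SV40 T antigen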
Large T antigen, sequence (P03070 whole entry): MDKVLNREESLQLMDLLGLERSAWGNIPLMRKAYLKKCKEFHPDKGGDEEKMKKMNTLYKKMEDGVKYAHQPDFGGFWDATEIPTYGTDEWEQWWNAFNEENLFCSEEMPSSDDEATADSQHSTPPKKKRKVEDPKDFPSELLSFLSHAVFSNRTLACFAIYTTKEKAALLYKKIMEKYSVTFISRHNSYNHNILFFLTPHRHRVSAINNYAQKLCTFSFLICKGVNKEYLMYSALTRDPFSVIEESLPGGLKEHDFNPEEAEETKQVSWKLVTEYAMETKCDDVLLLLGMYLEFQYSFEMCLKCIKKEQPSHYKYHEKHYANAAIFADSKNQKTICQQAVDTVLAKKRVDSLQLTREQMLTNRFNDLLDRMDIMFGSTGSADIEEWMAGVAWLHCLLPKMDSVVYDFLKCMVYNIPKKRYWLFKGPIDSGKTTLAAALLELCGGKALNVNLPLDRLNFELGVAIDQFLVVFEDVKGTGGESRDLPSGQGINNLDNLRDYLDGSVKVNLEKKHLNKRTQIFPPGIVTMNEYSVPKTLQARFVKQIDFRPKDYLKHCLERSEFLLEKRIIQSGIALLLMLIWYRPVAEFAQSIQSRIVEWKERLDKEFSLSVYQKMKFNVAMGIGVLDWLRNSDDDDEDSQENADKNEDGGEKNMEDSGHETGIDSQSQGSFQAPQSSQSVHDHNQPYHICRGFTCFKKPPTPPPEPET

Glyceraldehyde-3-phosphate dehydrogenase, sequence (P04406 whole entry): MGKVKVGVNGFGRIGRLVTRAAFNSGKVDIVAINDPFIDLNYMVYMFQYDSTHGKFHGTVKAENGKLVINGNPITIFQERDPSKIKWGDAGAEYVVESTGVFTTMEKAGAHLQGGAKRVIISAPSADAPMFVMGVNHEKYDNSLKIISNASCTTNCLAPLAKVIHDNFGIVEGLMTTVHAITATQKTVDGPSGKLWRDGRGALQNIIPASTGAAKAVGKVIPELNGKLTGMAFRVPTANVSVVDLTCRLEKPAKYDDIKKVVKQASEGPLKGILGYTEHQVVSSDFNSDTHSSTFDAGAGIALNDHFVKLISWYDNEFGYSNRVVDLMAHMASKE
T4 sequence (P49327 whole entry): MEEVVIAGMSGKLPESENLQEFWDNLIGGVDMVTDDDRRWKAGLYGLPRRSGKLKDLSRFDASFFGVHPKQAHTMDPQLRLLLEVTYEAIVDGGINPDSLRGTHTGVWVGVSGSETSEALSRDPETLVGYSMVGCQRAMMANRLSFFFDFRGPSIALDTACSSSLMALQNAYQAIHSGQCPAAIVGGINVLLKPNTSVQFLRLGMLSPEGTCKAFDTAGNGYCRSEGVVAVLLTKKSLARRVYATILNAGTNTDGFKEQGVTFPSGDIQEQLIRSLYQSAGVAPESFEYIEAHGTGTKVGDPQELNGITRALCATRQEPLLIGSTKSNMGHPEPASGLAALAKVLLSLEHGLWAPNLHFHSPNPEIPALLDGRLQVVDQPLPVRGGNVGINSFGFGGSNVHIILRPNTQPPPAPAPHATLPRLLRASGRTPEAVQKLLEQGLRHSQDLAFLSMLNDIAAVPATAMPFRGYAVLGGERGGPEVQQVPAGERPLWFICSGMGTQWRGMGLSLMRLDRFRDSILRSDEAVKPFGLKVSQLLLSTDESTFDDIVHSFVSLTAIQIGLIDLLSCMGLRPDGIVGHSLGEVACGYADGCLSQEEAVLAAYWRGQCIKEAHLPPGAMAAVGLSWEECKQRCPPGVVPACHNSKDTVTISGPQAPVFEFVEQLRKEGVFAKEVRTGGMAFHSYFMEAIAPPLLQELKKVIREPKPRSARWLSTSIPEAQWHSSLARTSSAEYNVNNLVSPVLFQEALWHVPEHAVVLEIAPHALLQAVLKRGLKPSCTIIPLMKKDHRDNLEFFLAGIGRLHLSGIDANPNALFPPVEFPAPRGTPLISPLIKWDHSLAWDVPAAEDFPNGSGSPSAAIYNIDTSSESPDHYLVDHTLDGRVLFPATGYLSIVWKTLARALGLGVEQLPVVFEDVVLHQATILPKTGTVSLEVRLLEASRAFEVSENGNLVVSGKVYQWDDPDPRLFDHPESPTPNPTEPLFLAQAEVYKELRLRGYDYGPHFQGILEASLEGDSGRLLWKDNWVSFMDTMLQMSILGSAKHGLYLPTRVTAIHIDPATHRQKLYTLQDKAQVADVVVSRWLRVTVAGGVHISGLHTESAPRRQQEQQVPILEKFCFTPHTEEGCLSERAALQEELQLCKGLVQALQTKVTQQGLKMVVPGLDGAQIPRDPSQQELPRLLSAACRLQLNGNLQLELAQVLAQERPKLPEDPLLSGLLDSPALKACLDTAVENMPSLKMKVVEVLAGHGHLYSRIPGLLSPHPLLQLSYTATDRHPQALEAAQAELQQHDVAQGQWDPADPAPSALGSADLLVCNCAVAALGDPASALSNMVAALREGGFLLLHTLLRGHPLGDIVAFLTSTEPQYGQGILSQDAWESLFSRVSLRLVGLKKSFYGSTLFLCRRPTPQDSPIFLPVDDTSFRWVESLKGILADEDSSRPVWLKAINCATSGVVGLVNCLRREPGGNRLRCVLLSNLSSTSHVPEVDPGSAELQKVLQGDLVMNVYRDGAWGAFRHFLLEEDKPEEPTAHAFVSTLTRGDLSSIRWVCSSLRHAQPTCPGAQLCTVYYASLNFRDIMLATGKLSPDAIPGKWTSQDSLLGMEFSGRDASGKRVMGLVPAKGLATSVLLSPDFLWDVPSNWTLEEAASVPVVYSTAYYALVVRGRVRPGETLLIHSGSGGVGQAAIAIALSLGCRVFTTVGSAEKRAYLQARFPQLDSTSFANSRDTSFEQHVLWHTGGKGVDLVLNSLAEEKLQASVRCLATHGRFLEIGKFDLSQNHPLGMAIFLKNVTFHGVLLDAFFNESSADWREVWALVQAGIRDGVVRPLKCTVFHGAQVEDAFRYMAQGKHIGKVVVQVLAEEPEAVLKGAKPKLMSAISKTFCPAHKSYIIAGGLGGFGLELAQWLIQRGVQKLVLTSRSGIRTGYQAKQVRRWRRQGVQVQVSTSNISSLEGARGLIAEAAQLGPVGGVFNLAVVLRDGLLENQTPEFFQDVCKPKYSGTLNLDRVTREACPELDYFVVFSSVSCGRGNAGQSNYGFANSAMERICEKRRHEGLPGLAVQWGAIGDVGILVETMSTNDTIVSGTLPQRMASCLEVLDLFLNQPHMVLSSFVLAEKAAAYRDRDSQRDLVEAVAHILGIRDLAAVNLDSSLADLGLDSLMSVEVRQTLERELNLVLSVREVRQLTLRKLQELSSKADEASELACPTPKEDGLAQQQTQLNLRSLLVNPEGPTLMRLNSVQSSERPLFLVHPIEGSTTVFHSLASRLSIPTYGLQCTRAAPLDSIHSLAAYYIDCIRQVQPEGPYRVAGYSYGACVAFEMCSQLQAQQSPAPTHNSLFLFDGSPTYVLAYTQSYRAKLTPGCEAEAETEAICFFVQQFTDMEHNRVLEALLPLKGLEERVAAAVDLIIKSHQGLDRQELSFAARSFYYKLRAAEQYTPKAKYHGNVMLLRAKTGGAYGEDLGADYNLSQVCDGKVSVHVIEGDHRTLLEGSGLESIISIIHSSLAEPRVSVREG
T1 sequence (P11940 whole entry, the tested form may be a part): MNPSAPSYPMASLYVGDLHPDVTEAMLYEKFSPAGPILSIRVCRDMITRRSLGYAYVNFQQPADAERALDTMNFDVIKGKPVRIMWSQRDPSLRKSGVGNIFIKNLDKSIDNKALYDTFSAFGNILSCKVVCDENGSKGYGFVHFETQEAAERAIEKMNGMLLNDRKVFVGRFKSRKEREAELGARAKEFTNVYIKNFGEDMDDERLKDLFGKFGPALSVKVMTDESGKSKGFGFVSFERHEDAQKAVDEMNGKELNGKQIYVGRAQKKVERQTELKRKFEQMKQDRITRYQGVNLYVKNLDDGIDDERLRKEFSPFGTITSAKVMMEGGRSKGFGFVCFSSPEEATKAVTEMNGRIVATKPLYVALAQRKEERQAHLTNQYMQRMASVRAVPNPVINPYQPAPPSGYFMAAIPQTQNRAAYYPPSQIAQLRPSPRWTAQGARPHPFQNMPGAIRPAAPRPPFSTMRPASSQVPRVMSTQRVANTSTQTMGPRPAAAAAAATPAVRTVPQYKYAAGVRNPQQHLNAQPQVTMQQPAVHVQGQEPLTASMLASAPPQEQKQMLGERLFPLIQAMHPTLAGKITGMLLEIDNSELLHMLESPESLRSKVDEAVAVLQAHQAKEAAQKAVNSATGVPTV
Glucose-6-phosphate 1-dehydrogenase, sequence (P11413 whole entry): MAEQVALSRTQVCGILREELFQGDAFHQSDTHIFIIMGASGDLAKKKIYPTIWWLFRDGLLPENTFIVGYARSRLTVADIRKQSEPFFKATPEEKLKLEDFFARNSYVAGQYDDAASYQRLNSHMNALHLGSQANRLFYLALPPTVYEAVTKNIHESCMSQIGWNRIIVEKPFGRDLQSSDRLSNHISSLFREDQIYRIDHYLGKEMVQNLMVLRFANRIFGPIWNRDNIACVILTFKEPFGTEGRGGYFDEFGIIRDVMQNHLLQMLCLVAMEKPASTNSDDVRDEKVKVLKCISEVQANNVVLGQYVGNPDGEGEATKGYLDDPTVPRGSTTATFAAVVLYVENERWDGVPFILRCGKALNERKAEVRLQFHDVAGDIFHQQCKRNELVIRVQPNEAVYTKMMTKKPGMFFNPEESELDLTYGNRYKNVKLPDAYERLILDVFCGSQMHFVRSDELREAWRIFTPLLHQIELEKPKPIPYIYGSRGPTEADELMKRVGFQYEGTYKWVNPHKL
Nonstructural protein 1, sequence (Q194T2 whole entry): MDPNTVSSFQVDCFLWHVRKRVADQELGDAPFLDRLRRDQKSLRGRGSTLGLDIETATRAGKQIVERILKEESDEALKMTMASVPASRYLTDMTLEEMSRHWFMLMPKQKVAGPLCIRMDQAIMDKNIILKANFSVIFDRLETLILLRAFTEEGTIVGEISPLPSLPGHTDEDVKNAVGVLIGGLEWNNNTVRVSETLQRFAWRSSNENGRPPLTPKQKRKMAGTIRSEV

COc1ccccc1C1=NOC(COc2ccc3c(C)cc(=O)oc3c2)C1 (centres undefined)
AC50 [1]: 0.224 µM (active)
IC50 [2]: > 80 µM (inactive)

COc1ccc(CC2C(=O)N(C)C(=O)N(C)C2=O)c(OC)c1
IC50 [3]: > 66 µM (inactive)
IC50 [4]: > 66 µM (inactive)

O=[N+]([O-])c1ccc(C2=Nc3cc(Cl)ccc3OC2)cc1
EC50 [5]: 90.7 µM (active)
EC50 [6]: > 300 µM (inconclusive)

CCOc1cc(C2C(C#N)=C(N)OC3=C2C(=O)CC(C)(C)C3)cc([N+](=O)[O-])c1O (centres undefined)
EC50 [5]: > 300 µM (not active)
EC50 [6]: > 300 µM (not active)

CC(NC(=O)COC(=O)c1cc([N+](=O)[O-])ccc1N1CCOCC1)c1ccc(F)cc1 (centres undefined)
IC50 [7]: 1.95 µM (active)
IC50 [8]: 1.48 µM (active)

S=C(Nc1ccc(Cl)cc1)Nc1ccc2c[nH]nc2c1
EC50 [9]: > 350 µM (not active)
EC50 [10]: > 350 µM (not active)

COCCN1CN(S(=O)(=O)c2ccccc2)c2nc3ccccc3nc21
IC50 [3]: 55.4 µM (inactive)
IC50 [4]: > 66 µM (inactive)

CCCCC1=CC2=CC(=O)C(C)(OC(=O)CC)C(=O)C2=CN1CCCCO (centres undefined)
IC50 [3]: > 66 µM (inactive)
IC50 [4]: > 66 µM (inactive)

Cc1cccc(NC(=O)COc2cccc3c2CCN(C)C3=O)c1C
EC50 [9]: > 350 µM (not active)
EC50 [10]: > 350 µM (not active)

CC(=O)c1cccc(NC(=S)NC(=O)c2ccc(Br)cc2)c1
IC50 [3]: > 66 µM (inactive)
IC50 [4]: > 66 µM (inactive)

Cc1csc(NC(=O)c2ccc(OCC3CCCO3)cc2)n1 (centres undefined)
AC50 [11]: 1.96 µM (active)
AC50 [12]: 2.55 µM (active)

C[C@H]1CN(C2=C(Cl)C(=O)N(c3ccc(Cl)nc3)C2=O)CCN1
IC50 [13]: > 50 µM (inconclusive)

CC(C)(C)c1ccc(C(=O)N/C(=C\c2cccc([N+](=O)[O-])c2)C(=O)Nc2cccc(C(=O)O)c2)cc1
IC50 [7]: 2.44 µM (active)
IC50 [8]: 1.48 µM (active)

COc1ccc(OC)c(C2CC(=O)c3c([nH]c(C(=O)OC(C)C)c3C)C2)c1 (centres undefined)
IC50 [2]: > 80 µM (inactive)

CCOc1ccccc1NC(=O)CN(c1ccc(OC)cc1)S(=O)(=O)c1c(C)noc1C
IC50 [2]: > 80 µM (inactive)

CCOC(=O)c1ccc(NC(=O)c2[nH]cnc2C(=O)N[C@@H](CCCCNC(=O)OC(C)(C)C)C(=O)OC(C)(C)C)cc1
IC50 [7]: 0.539 µM (active)
EC50 [14]: 6.84 µM (active)
EC50 [15]: 55.6 µM (active)
IC50 [8]: 0.463 µM (active)
EC50 [16]: > 150 µM (not active)

Nc1nc(-c2ccccc2)cn1/N=C/c1cccc([N+](=O)[O-])c1
IC50 [13]: > 100 µM (not active)

Cc1noc2ncnc(Sc3ccc(Cl)cc3)c12
CC50 [17]: > 20 µM (active)
EC50 [18]: > 38 µM (not active)
CC50 [19]: 27.1 µM (active)
CC50 [20]: 21.3 µM (active)
IC50 [21]: 8.82 µM (active)
EC50 [22]: > 160 µM (inconclusive)

N#CCCN(C(=S)NC(=O)c1ccco1)c1ccccc1F
IC50 [3]: > 66 µM (inactive)
IC50 [4]: > 66 µM (inactive)

O=C1C(Cl)=C(N2CCN(Cc3ccccc3)CC2)C(=O)N1c1cccc(C(F)(F)F)c1
IC50 [13]: > 50 µM (inconclusive)

Cc1cc(C)c2nc(-n3nc(C)cc3N)cc(C)c2c1
EC50 [23]: 1.71 µM (active)
EC50 [24]: 32.5 µM (active)

O=C(COC(=O)CCc1ccccc1)Nc1cc([N+](=O)[O-])ccc1F
IC50 [7]: 5.19 µM (active)
IC50 [8]: 6.27 µM (active)

Cn1cc(CN2CCC(C(=O)Nc3cccc(-c4cscn4)c3)CC2)cn1
EC50 [9]: > 350 µM (not active)
EC50 [10]: > 350 µM (not active)

NC(=O)CSc1nnc2ccc(-c3ccc(Cl)cc3)nn12
EC50 [9]: > 350 µM (not active)
EC50 [10]: > 350 µM (not active)

CCOc1ccccc1CN1CCN(S(C)(=O)=O)CC1
EC50 [9]: > 350 µM (not active)
EC50 [10]: > 350 µM (not active)

ON=CN=C(S)Nc1ncc(C(F)(F)F)cc1Cl
IC50 [3]: > 66 µM (inactive)
IC50 [4]: > 66 µM (inactive)

CCN1CCN(Cc2ccccc2NC(=O)Nc2ccc(C)cc2)CC1
EC50 [23]: 7.09 µM (active)
EC50 [24]: > 120 µM (not active)

O=C(CNC(=O)c1cccs1)OCC(=O)c1ccc([N+](=O)[O-])cc1
IC50 [25]: > 80 µM (inactive)

CCCCCN1C=CC(=C2C(=O)c3ccccc3C2=O)C=C1
IC50 [2]: > 80 µM (inactive)

CCOC(=O)c1sc(NC(=O)CCCn2nc([N+](=O)[O-])c(Cl)c2C)c(C(=O)OCC)c1C
AC50 [26]: 6.34 µM (active)
AC50 [27]: 15.4 µM (active)

S=C(NN=Cc1ccccn1)N(Cc1ccccn1)Cc1ccccn1
IC50 [28]: 1.59 µM (active)
IC50 [25]: > 80 µM (inactive)

CN(C)S(=O)(=O)c1cccc(NC(=O)COc2ccccc2C(=O)Nc2ccccc2)c1
AC50 [29]: 30.6 µM (active)
AC50 [11]: 22.9 µM (active)
AC50 [12]: 20.1 µM (active)

COC(=O)N/N=C/c1ccc([N+](=O)[O-])s1
CC50 [17]: > 20 µM (active)
IC50 [21]: 30.5 µM (active)

COc1cc(/C=N/NC(=O)CCn2nc(C)cc2C)ccc1O
IC50 [30]: 15.6 µM (active)

O=C(N/N=C/c1c[nH]c2ccccc12)c1ccc(O)c(O)c1
IC50 [30]: 9.13 µM (active)
